Patent US20250049781A1, “PHARMACEUTICAL COMPOSITIONS COMPRISING RPL554 IN HFA-134A FOR ADMINISTRATION BY INHALATION” (VERONA PHARMA PLC, priority 2018, published 2025)
“And” between values parts separate entries of the source, which are not always exact repeats. Identical values can stand only once.

Assays:
Assay type in all cases: physicochemical
[1] = Sedimentation score of pMDI formulations containing HFA-134a, oleic acid and ethanol; set-up: key: 1 = fastest sedimentation (undesirable), 10 = slowest (acceptable)
Procedure: (§1) Samples were made by adding the required amounts of RPL554 (see Table 3) to 15 ml pressure rated clear glass vials. The propellant, HFA-134a, HFA-227ea or combinations of the two (see Table 4) was added through the valve and the samples were mixed in an ultrasonic bath for 30 seconds. The same target fill weight of 11.6 g (±0.5 g) was used for all samples. The appearance of the API particles in the propellants was assessed with regards to both the sedimentation rate and flocculation behaviour (see FIG. 1). The sedimentation rate of the formulations was visually assessed after suspension agitation by recording images of the glass vials using a high-speed camera. The suspension quality was determined by assigning a sedimentation score of from 1 to 10 based on the amount of active particles which had settled or floated in 30 seconds, with 1being the fastest to sediment/cream (i.e. undesirable) and 10 being the slowest to sediment/cream (i.e. acceptable).
In order to seek to improve the suspension characteristics the inclusion of additional excipients was investigated. In particular, formulations further comprising a surfactant (oleic acid, Ph. Eur./BP) and a co-solvent (ethanol, 100% USP-NF) were prepared.

[2] = RPL554 dissolved in HFA-134a/ethanol with or without oleic acid (UV/Visible); settings: 24 hours at ambient temperature
Procedure: Samples were prepared by adding 1.5 mg of RPL554 to plain 14 mL aluminium canisters, with ethanol, oleic acid and HFA-134a. Excipients were added to the canisters to maintain an ethanol/oleic acid ratio of a 50:1 (see Table 8). Corresponding canisters were also produced containing RPL554, ethanol and HFA-134a only. The canisters were crimped with 63 μL pMDI valves, with shortened dip tubes (FIG. 3), and filled to 11.6 g with HFA-134a through the valve. The length of the dip tubes was sufficient to extend into the liquid propellant/co-solvent phase only (i.e. after the API particles had settled). The samples were placed in an ultrasonic bath for 30 seconds.
All the canisters were left for 24 hours at ambient temperature to settle and to establish dissolution equilibrium. To determine the amount of API dissolved, each canister was fired five times, in an upright position (through a cannula fitted to the valve stem) into a 10.0 cm^3 volumetric flask. The flask was made up to volume with dehydrated ethanol and the solution was analysed using UV/Visible spectroscopy (Perkin Elmer, Model Lambda 35). The concentration of RPL554 was calculated, quantitatively, against a three point standard curve.

[3] = Solubility of RPL554 in ethanol (USP/BP criteria)
Procedure: However, the observations of dissolution and recrystallisation with the lowest product strength (10 μg/actuation) prompted further investigations into the solubility of RPL554 in ethanol in the presence of oleic acid.
The original assessment was carried out using Analytical Reagent grade ethanol. […] Unexpectedly, RPL554 was therefore found to have some solubility in ethanol.

[4] = Sedimentation score of RPL554 suspensions in HFA-134a, HFA-227ea and mixtures (visual, glass vials); set-up: key to Sedimentation score: 1 = fastest sediment/cream (undesirable), 10 = slowest (acceptable)
Procedure: as §1

Compound: COc1cc2c(cc1OC)-c1c/c(=N\c3c(C)cc(C)cc3C)n(CCNC(N)=O)c(=O)n1CC2 [RPL554, 9,10-dimethoxy-2-(2,4,6-trimethylphenylimino)-3-(N-carbamoyl-2-aminoethyl)-3,4,6,7-tetrahydro-2H-pyrimido[6,1-a]isoquinolin-4-one]
- Sedimentation score ([1]; 10 μg/actuation, ethanol 1% w/w, oleic acid 0.010% w/w): 6
- Sedimentation score ([1]; 10 μg/actuation, ethanol 1% w/w, oleic acid 0.500% w/w): 1
- Sedimentation score ([1]; 10 μg/actuation, ethanol 5% w/w, oleic acid 0.255% w/w): 6
- Sedimentation score ([1]; 10 μg/actuation, ethanol 15% w/w, oleic acid 0.010% w/w): 6
- Sedimentation score ([1]; 10 μg/actuation, ethanol 15% w/w, oleic acid 0.500% w/w): 6
- Sedimentation score ([1]; 150 μg/actuation, ethanol 1% w/w, oleic acid 0.255% w/w): 2
- Sedimentation score ([1]; 150 μg/actuation, ethanol 5% w/w, oleic acid 0.010% w/w): 4
- Sedimentation score ([1]; 150 μg/actuation, ethanol 5% w/w, oleic acid 0.255% w/w (six replicate samples)): 5 (5×) and 4
- Sedimentation score ([1]; 150 μg/actuation, ethanol 5% w/w, oleic acid 0.500% w/w): 4
- Sedimentation score ([1]; 150 μg/actuation, ethanol 15% w/w, oleic acid 0.255% w/w): 8
- Sedimentation score ([1]; 1000 μg/actuation, ethanol 1% w/w, oleic acid 0.010% w/w): 3
- Sedimentation score ([1]; 1000 μg/actuation, ethanol 1% w/w, oleic acid 0.500% w/w): 2
- Sedimentation score ([1]; 1000 μg/actuation, ethanol 5% w/w, oleic acid 0.255% w/w): 3
- Sedimentation score ([1]; 1000 μg/actuation, ethanol 15% w/w, oleic acid 0.010% w/w): 4
- Sedimentation score ([1]; 1000 μg/actuation, ethanol 15% w/w, oleic acid 0.500% w/w): 5
- Amount of dissolved RPL554 versus ethanol concentration ([2]; HFA-134a with 1-12% w/w ethanol): increased with increasing ethanol concentration
- Effect of oleic acid on the solubility of RPL554 ([2]; HFA-134a/ethanol, ethanol/oleic acid ratio 50:1): no effect
- Solubility classification according to the USP/BP criteria ([3]; Analytical Reagent grade ethanol, previous (original) assessment): practically insoluble
- Solubility classification according to the USP/BP criteria ([3]; dehydrated alcohol (100% USP-NF ethanol), reassessment): very slightly soluble
- Sedimentation score ([4]; 10 μg/actuation, HFA-134a 0% w/w, HFA-227ea 100% w/w): 3
- Sedimentation score ([4]; 10 μg/actuation, HFA-134a 25% w/w, HFA-227ea 75% w/w): 5
- Sedimentation score ([4]; 10 μg/actuation, HFA-134a 50% w/w, HFA-227ea 50% w/w): 4
- Sedimentation score ([4]; 10 μg/actuation, HFA-134a 75% w/w, HFA-227ea 25% w/w): 6
- Sedimentation score ([4]; 10 μg/actuation, HFA-134a 100% w/w, HFA-227ea 0% w/w, scale 1-10, 10 slowest): 6
- Sedimentation score ([4]; 50 μg/actuation, HFA-134a 0% w/w, HFA-227ea 100% w/w): 3
- Sedimentation score ([4]; 50 μg/actuation, HFA-134a 25% w/w, HFA-227ea 75% w/w): 4
- Sedimentation score ([4]; 50 μg/actuation, HFA-134a 50% w/w, HFA-227ea 50% w/w): 3
- Sedimentation score ([4]; 50 μg/actuation, HFA-134a 75% w/w, HFA-227ea 25% w/w): 6
- Sedimentation score ([4]; 50 μg/actuation, HFA-134a 100% w/w, HFA-227ea 0% w/w): 6
- Sedimentation score ([4]; 150 μg/actuation, HFA-134a 0% w/w, HFA-227ea 100% w/w): 3
- Sedimentation score ([4]; 150 μg/actuation, HFA-134a 25% w/w, HFA-227ea 75% w/w): 4
- Sedimentation score ([4]; 150 μg/actuation, HFA-134a 50% w/w, HFA-227ea 50% w/w): 3
- Sedimentation score ([4]; 150 μg/actuation, HFA-134a 75% w/w, HFA-227ea 25% w/w): 3
- Sedimentation score ([4]; 150 μg/actuation, HFA-134a 100% w/w, HFA-227ea 0% w/w): 5
- Sedimentation score ([4]; 500 μg/actuation, HFA-134a 0% w/w, HFA-227ea 100% w/w): 2
- Sedimentation score ([4]; 500 μg/actuation, HFA-134a 25% w/w, HFA-227ea 75% w/w): 3
- Sedimentation score ([4]; 500 μg/actuation, HFA-134a 50% w/w, HFA-227ea 50% w/w): 2
- Sedimentation score ([4]; 500 μg/actuation, HFA-134a 75% w/w, HFA-227ea 25% w/w): 3
- Sedimentation score ([4]; 500 μg/actuation, HFA-134a 100% w/w, HFA-227ea 0% w/w): 3
- Sedimentation score ([4]; 1000 μg/actuation, HFA-134a 0% w/w, HFA-227ea 100% w/w): 2
- Sedimentation score ([4]; 1000 μg/actuation, HFA-134a 25% w/w, HFA-227ea 75% w/w): 4
- Sedimentation score ([4]; 1000 μg/actuation, HFA-134a 50% w/w, HFA-227ea 50% w/w): 3
- Sedimentation score ([4]; 1000 μg/actuation, HFA-134a 75% w/w, HFA-227ea 25% w/w): 4
- Sedimentation score ([4]; 1000 μg/actuation, HFA-134a 100% w/w, HFA-227ea 0% w/w): 4
- Suspension behaviour on and after shaking ([4]; formulation in HFA-134a): readily suspended on shaking, with rapid flocculation and gradual sedimentation observed after shaking was stopped
- Suspension behaviour on and after shaking ([4]; formulation in HFA-227ea): creaming was observed after the cessation of shaking
- Suspension behaviour on and after shaking ([4]; formulation in blend of HFA-134a/HFA-227ea (50/50)): creaming was observed after the cessation of shaking
